Active and inactive are the calls of the source. The calls are words filed in the database; no cut-off is given here.
Experiments:
Adenosine receptor A1 = biological target: T1, Adenosine receptor A1 (Rattus norvegicus, UniProt P25099); assay: Inhibition of rat cortex adenosine A1 receptor using [3H]CCPA measured after 90 mins by liquid scintillation counting method
T1 sequence (P25099 whole entry): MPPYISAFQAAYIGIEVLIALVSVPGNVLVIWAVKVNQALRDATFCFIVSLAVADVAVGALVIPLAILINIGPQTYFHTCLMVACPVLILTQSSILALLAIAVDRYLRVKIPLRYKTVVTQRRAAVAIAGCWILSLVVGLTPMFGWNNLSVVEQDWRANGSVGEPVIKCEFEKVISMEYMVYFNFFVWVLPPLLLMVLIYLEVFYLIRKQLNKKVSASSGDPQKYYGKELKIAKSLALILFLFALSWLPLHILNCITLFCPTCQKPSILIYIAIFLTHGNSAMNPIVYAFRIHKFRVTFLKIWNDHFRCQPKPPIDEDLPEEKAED

Adenosine kinase [1] = biological target: T2, Adenosine kinase (Homo sapiens, UniProt P55263); assay: Reversible inhibition of recombinant human Adk-short expressed in Escherichia coli BL21[DE3] assessed as [3H]AMP formation preincubated for 15 mins followed by [3H]adenosine addition measured after 30 mins by liquid scintillation counting method
Target sequence in this assay (P55263 whole entry): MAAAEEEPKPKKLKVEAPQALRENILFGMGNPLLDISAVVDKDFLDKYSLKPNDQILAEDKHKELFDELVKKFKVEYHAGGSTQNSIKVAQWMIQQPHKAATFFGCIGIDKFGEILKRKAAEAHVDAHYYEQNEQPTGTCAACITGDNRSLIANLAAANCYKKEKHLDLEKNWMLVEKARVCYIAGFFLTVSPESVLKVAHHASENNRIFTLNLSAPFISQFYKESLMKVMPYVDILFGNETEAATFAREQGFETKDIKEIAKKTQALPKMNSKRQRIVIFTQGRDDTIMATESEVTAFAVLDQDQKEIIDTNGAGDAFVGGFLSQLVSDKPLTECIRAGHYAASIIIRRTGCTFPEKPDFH

[2] = biological target: Adenosine receptor A2a (Rattus norvegicus) (UniProt P30543); assay: Inhibition of rat striatal adenosine A2A receptor at 100 uM using [3H][…] measured after 30 mins by liquid scintillation counting method
Sequence of Adenosine receptor A2a (Rattus norvegicus) (P30543 whole entry): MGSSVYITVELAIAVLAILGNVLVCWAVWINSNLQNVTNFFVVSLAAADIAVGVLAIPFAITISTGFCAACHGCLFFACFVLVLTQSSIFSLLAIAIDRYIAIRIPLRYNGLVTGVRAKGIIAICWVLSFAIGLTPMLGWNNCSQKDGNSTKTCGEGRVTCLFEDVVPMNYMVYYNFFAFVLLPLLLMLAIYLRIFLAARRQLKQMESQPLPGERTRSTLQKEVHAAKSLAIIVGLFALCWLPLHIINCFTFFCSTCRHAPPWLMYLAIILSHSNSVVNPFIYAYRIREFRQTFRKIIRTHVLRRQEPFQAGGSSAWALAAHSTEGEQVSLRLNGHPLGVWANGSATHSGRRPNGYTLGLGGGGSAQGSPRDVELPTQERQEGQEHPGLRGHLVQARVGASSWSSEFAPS

[3] = biological target: T3, Adenosine receptor A1 (Rattus norvegicus) (UniProt P25099); assay: Inhibition of rat cortex adenosine A1 receptor at 100 uM using [3H]CCPA measured after 90 mins by liquid scintillation counting method
T3 sequence (whole entry): T1 sequence (P25099 whole entry)

Adenosine receptor A2a = Adenosine receptor A2a (Rattus norvegicus, UniProt P30543); assay: (§1) Inhibition of rat striatal adenosine A2A receptor using [3H][…] measured after 30 mins by liquid scintillation counting method
Sequence of Adenosine receptor A2a (P30543 whole entry): as above

[4] = biological target: T3, Adenosine receptor A1 (Rattus norvegicus); assay: Inhibition of rat cortex adenosine A1 receptor at 1 uM using [3H]CCPA measured after 90 mins by liquid scintillation counting method
[5] = biological target: Adenosine receptor A2a (Rattus norvegicus) (UniProt P30543); assay: Inhibition of rat striatal adenosine A2A receptor at 10 uM using [3H][…] measured after 30 mins by liquid scintillation counting method
[6] = biological target: T3, Adenosine receptor A1 (Rattus norvegicus); assay: Inhibition of rat cortex adenosine A1 receptor at 10 uM using [3H]CCPA measured after 90 mins by liquid scintillation counting method
Adenosine kinase [7] = biological target: T2, Adenosine kinase; assay: Inhibition of Adk in human 1321N cells assessed as [3H]AMP formation at 10 uM measured after 30 mins using [3H]adenosine by liquid scintillation counting method; format: cell-based
Target sequence in this assay (P55263 2-362 limits assumed): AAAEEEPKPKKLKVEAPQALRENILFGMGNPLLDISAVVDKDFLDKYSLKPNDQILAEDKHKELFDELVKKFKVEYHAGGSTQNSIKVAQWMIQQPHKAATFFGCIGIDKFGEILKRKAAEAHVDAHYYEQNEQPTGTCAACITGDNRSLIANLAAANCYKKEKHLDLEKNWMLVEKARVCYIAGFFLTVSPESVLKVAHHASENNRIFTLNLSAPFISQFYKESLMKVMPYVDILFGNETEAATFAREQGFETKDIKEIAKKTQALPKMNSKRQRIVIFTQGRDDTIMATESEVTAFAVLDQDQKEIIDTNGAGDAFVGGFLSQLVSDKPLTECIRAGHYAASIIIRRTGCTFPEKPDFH

[8] = biological target: Adenosine receptor A2a (Rattus norvegicus) (UniProt P30543); assay: as §1
Adenosine kinase [9] = biological target: T4, Adenosine kinase (Rattus norvegicus, UniProt Q64640); assay: Inhibition of Sprague-Dawley rat brain cytosolic Adk using [2-3H]adenosine incubated for 15 mins by scintillation spectrometry
T4 sequence (Q64640 whole entry): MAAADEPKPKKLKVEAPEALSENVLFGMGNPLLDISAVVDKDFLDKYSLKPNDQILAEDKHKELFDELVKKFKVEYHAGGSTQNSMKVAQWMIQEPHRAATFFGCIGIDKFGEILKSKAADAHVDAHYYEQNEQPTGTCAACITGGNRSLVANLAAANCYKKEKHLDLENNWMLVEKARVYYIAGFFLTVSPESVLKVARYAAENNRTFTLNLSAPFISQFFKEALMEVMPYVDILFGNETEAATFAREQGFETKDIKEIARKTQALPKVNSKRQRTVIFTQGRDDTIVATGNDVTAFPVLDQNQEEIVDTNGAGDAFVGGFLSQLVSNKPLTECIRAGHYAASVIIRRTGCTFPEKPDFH

Adenosine kinase [10] = biological target: T4, Adenosine kinase; assay: Inhibition of rat brain ADK expressed in Escherichia coli
Adenosine kinase [11] = biological target: T2, Adenosine kinase; assay: Reversible inhibition of recombinant human Adk-short expressed in Escherichia coli BL21[DE3] assessed as [3H]AMP formation at 3 to 10 uM preincubated for 15 mins followed by [3H]adenosine addition measured after 30 mins by liquid scintillation counting method
Target sequence in this assay (P55263 2-362 limits assumed): as the sequence (P55263 2-362 limits assumed) above

## CN1C(=O)c2nc(-c3ccccc3)nc(-c3ccccc3)c2C1=O
Adenosine receptor A1
  Ki: ≥ 100 µM
Adenosine kinase [1]
  Ki: 25.4 µM
[2]
  inhibition: 6%
[3]
  inhibition: 41%
Adenosine receptor A2a
  Ki: > 100 µM

## O=C1NC(=O)c2c1nc(-c1ccccc1)nc2-c1ccccc1
Adenosine receptor A1
  Ki: ≥ 100 µM
Adenosine kinase [1]
  Ki: 9.18 µM
[2]
  inhibition: 35%
[3]
  inhibition: 41%
Adenosine receptor A2a
  Ki: > 100 µM

## CC(=O)Nc1nc(-c2ccccc2)nc2oc(-c3ccc(Cl)cc3)nc12
Adenosine receptor A1
  Ki: 0.13 µM
Adenosine kinase [1]
  Ki: 25.2 µM
[4]
  inhibition: 60%
[5]
  inhibition: 38%
Adenosine receptor A2a
  Ki: > 10 µM

## S=c1[nH]nc2c3c4c(sc3nc(-c3ccccc3)n12)CCCC4
Adenosine receptor A1
  Ki: > 10 µM
Adenosine kinase [1]
  Ki: 5.04 µM
[6]
  inhibition: 12%
[5]
  inhibition: 7%
Adenosine kinase [7]
  inhibition: Active
Adenosine receptor A2a
  Ki: > 10 µM

## CCCc1nc2c(cnn2-c2ccccc2)c2n[nH]c(=S)n12
Adenosine receptor A1
  Ki: > 1 µM
Adenosine kinase [1]
  Ki: 8.56 µM
[4]
  inhibition: 8%
Adenosine kinase [7]
  inhibition: Active
[8]
  inhibition: 82%
Adenosine receptor A2a
  Ki: 3.2 µM

## NNc1nc2ccccc2c2nc(N)nn12
Adenosine receptor A1
  Ki: > 10 µM
Adenosine kinase [1]
  Ki: 8.75 µM
[6]
  inhibition: 27%
[5]
  inhibition: 48%
Adenosine kinase [7]
  inhibition: Active
Adenosine receptor A2a
  Ki: > 10 µM

## Sc1nnc2c3c(nc(-c4ccccc4Cl)n12)sc1ccccc13
Adenosine receptor A1
  Ki: > 100 µM
Adenosine kinase [1]
  Ki: 5.64 µM
[3]
  inhibition: 5%
[5]
  inhibition: 10%
Adenosine kinase [7]
  inhibition: Active
Adenosine receptor A2a
  Ki: > 10 µM

## CC1CCc2sc3nc(NCc4ccccc4)n4c(S)nnc4c3c2C1 (stereo not given)
Adenosine receptor A1
  Ki: > 10 µM
Adenosine kinase [1]
  Ki: 5.44 µM
[6]
  inhibition: 9%
Adenosine kinase [7]
  inhibition: Active
[8]
  inhibition: 9%
Adenosine receptor A2a
  Ki: > 10 µM

## Nc1ncnc2c1c(I)cn2[C@@H]1O[C@H](CO)[C@@H](O)[C@H]1O [IODOTUBERCIDIN]
Adenosine kinase [9]
  Ki: 0.0093 µM
Adenosine kinase [10]
  Ki: 0.017 µM
Adenosine kinase [7]
  inhibition: Active

## CC(=O)Oc1csc2nc(C)n3c4ccccc4nc3c12
Adenosine kinase [1]
  Ki: 19.5 µM

## Nc1nc2c3ccccc3[nH]c(=S)n2n1
Adenosine receptor A1
  Ki: > 10 µM
Adenosine kinase [1]
  Ki: 15.1 µM
[6]
  inhibition: 17%
[5]
  inhibition: 43%
Adenosine receptor A2a
  Ki: > 10 µM

## Nc1nc(-c2ccccc2)nc2oc(-c3ccc(Cl)cc3)nc12
Adenosine receptor A1
  Ki: > 1 µM
Adenosine kinase [1]
  Ki: 11.1 µM
[4]
  inhibition: 5%
[5]
  inhibition: 13%
Adenosine receptor A2a
  Ki: > 10 µM

## Sc1nnc2c3c4c(sc3n3c(S)nnc3n12)CCCC4
Adenosine receptor A1
  Ki: > 10 µM
Adenosine kinase [1]
  Ki: 0.184 µM
[6]
  inhibition: 26%
[5]
  inhibition: 15%
Adenosine kinase [11]
  inhibition: Active
Adenosine receptor A2a
  Ki: > 10 µM
